Results reported in the NIST ThermoML archive (doi:10.1016/j.jct.2008.05.005).

Experiment: xn = mol fraction of the nth substance listed
Conditions: Liquid, Vibrating tube method

CCCCn1cc[n+](C)c1.F[B-](F)(F)F [1-butyl-3-methylimidazolium tetrafluoroborate] + CO
Conditions | mass density [kg/m3]
348.15 K, 20140 kPa, x1 = 0.9102 | 1177.87
348.15 K, 20370 kPa, x1 = 0.1302 | 949.49
348.15 K, 20420 kPa, x1 = 0.2626 | 1040.92
348.15 K, 20440 kPa, x1 = 0.0087 | 779.62
348.15 K, 25180 kPa, x1 = 0.0433 | 846.4
348.15 K, 25270 kPa, x1 = 0.1302 | 953.3
348.15 K, 25310 kPa, x1 = 0.2626 | 1044.36
348.15 K, 25310 kPa, x1 = 0.4988 | 1122.86
348.15 K, 25320 kPa, x1 = 0.0087 | 784.47
348.15 K, 25620 kPa, x1 = 0.7501 | 1164.19
348.15 K, 25620 kPa, x1 = 0.9102 | 1180.73
348.15 K, 30070 kPa, x1 = 0.7501 | 1166.56
348.15 K, 30090 kPa, x1 = 0.4988 | 1125.66
348.15 K, 30140 kPa, x1 = 0.9102 | 1183.03
348.15 K, 30150 kPa, x1 = 0.0087 | 789.02
348.15 K, 30160 kPa, x1 = 0.0433 | 850.67
348.15 K, 30210 kPa, x1 = 0.2626 | 1047.7
348.15 K, 30560 kPa, x1 = 0.1302 | 957.16
348.15 K, 35010 kPa, x1 = 0.7501 | 1169.13
348.15 K, 35080 kPa, x1 = 0.2626 | 1050.92
348.15 K, 35120 kPa, x1 = 0.0087 | 793.42
348.15 K, 35260 kPa, x1 = 0.4988 | 1128.6
348.15 K, 35420 kPa, x1 = 0.1302 | 960.46
348.15 K, 35740 kPa, x1 = 0.0433 | 855.14
348.15 K, 35740 kPa, x1 = 0.9102 | 1185.8
348.15 K, 39640 kPa, x1 = 0.0087 | 797.19
348.15 K, 39720 kPa, x1 = 0.1302 | 963.19
348.15 K, 39920 kPa, x1 = 0.2626 | 1054.02
348.15 K, 39920 kPa, x1 = 0.4988 | 1131.18
348.15 K, 39980 kPa, x1 = 0.9102 | 1187.84
348.15 K, 39990 kPa, x1 = 0.7501 | 1171.65
348.15 K, 40010 kPa, x1 = 0.0433 | 858.32
373.15 K, 620 kPa, x1 = 0.0433 | 797.86
373.15 K, 620 kPa, x1 = 0.9102 | 1149.53
373.15 K, 680 kPa, x1 = 0.0087 | 731.31
373.15 K, 840 kPa, x1 = 0.1302 | 910.67
373.15 K, 840 kPa, x1 = 0.7501 | 1131.82
373.15 K, 880 kPa, x1 = 0.4988 | 1088.22
373.15 K, 960 kPa, x1 = 0.2626 | 1006.13
373.15 K, 5010 kPa, x1 = 0.7501 | 1134.65
373.15 K, 5320 kPa, x1 = 0.2626 | 1009.96
373.15 K, 5410 kPa, x1 = 0.0087 | 738.04
373.15 K, 5410 kPa, x1 = 0.9102 | 1152.54
373.15 K, 5450 kPa, x1 = 0.1302 | 915.31
373.15 K, 5470 kPa, x1 = 0.4988 | 1091.64
373.15 K, 5500 kPa, x1 = 0.0433 | 804.09
373.15 K, 10030 kPa, x1 = 0.9102 | 1155.38
373.15 K, 10070 kPa, x1 = 0.2626 | 1014.1
373.15 K, 10080 kPa, x1 = 0.4988 | 1095
373.15 K, 10280 kPa, x1 = 0.1302 | 919.98
373.15 K, 10320 kPa, x1 = 0.7501 | 1138.17
373.15 K, 10390 kPa, x1 = 0.0087 | 744.76
373.15 K, 10780 kPa, x1 = 0.0433 | 810.45
373.15 K, 15090 kPa, x1 = 0.7501 | 1141.24
373.15 K, 15170 kPa, x1 = 0.1302 | 924.53
373.15 K, 15230 kPa, x1 = 0.2626 | 1018.44
373.15 K, 15390 kPa, x1 = 0.0433 | 815.67
373.15 K, 15430 kPa, x1 = 0.4988 | 1098.81
373.15 K, 15450 kPa, x1 = 0.0087 | 751.2
373.15 K, 15720 kPa, x1 = 0.9102 | 1158.79
373.15 K, 20090 kPa, x1 = 0.2626 | 1022.37
373.15 K, 20210 kPa, x1 = 0.0433 | 820.81
373.15 K, 20420 kPa, x1 = 0.1302 | 929.19
373.15 K, 20420 kPa, x1 = 0.7501 | 1144.57
373.15 K, 20580 kPa, x1 = 0.0087 | 757.35
373.15 K, 20610 kPa, x1 = 0.4988 | 1102.41
373.15 K, 20610 kPa, x1 = 0.9102 | 1161.64
373.15 K, 24990 kPa, x1 = 0.0433 | 825.57
373.15 K, 25080 kPa, x1 = 0.7501 | 1147.41
373.15 K, 25330 kPa, x1 = 0.1302 | 933.36
373.15 K, 25340 kPa, x1 = 0.2626 | 1026.45
373.15 K, 25340 kPa, x1 = 0.4988 | 1105.63
373.15 K, 25580 kPa, x1 = 0.0087 | 762.96
373.15 K, 25830 kPa, x1 = 0.9102 | 1164.62
373.15 K, 29810 kPa, x1 = 0.1302 | 936.98
373.15 K, 30080 kPa, x1 = 0.2626 | 1029.97
373.15 K, 30080 kPa, x1 = 0.4988 | 1108.78
373.15 K, 30140 kPa, x1 = 0.9102 | 1167.01
373.15 K, 30410 kPa, x1 = 0.7501 | 1150.55
373.15 K, 30550 kPa, x1 = 0.0433 | 830.7
373.15 K, 30780 kPa, x1 = 0.0087 | 768.4
373.15 K, 34970 kPa, x1 = 0.0433 | 834.46
373.15 K, 35040 kPa, x1 = 0.9102 | 1169.67
373.15 K, 35210 kPa, x1 = 0.7501 | 1153.29
373.15 K, 35560 kPa, x1 = 0.1302 | 941.4
373.15 K, 35620 kPa, x1 = 0.2626 | 1033.9
373.15 K, 35640 kPa, x1 = 0.4988 | 1112.39
373.15 K, 35780 kPa, x1 = 0.0087 | 773.25
373.15 K, 39510 kPa, x1 = 0.0087 | 776.62
373.15 K, 39910 kPa, x1 = 0.0433 | 838.34
373.15 K, 39940 kPa, x1 = 0.2626 | 1036.83
373.15 K, 39940 kPa, x1 = 0.9102 | 1172.26
373.15 K, 39970 kPa, x1 = 0.4988 | 1115.12
373.15 K, 39980 kPa, x1 = 0.7501 | 1155.94
373.15 K, 40050 kPa, x1 = 0.1302 | 944.67
398.15 K, 870 kPa, x1 = 0.0087 | 702.45
398.15 K, 980 kPa, x1 = 0.7501 | 1114.32
398.15 K, 990 kPa, x1 = 0.4988 | 1069.4
398.15 K, 1020 kPa, x1 = 0.2626 | 985.77
398.15 K, 1030 kPa, x1 = 0.9102 | 1132.67
398.15 K, 1250 kPa, x1 = 0.0433 | 772.27
398.15 K, 2310 kPa, x1 = 0.1302 | 891.44
398.15 K, 5010 kPa, x1 = 0.0087 | 709.59
398.15 K, 5060 kPa, x1 = 0.0433 | 778.08
398.15 K, 5060 kPa, x1 = 0.2626 | 989.1
398.15 K, 5080 kPa, x1 = 0.4988 | 1072.6
398.15 K, 5120 kPa, x1 = 0.1302 | 894.51
398.15 K, 5310 kPa, x1 = 0.7501 | 1117.54
398.15 K, 5410 kPa, x1 = 0.9102 | 1135.7
398.15 K, 10030 kPa, x1 = 0.0087 | 717.77
398.15 K, 10030 kPa, x1 = 0.1302 | 899.7
398.15 K, 10120 kPa, x1 = 0.2626 | 994.1
398.15 K, 10250 kPa, x1 = 0.9102 | 1138.98
398.15 K, 10410 kPa, x1 = 0.0433 | 785.75
398.15 K, 10410 kPa, x1 = 0.7501 | 1121.25
398.15 K, 10470 kPa, x1 = 0.4988 | 1077.23
398.15 K, 14950 kPa, x1 = 0.0087 | 725.27
398.15 K, 15020 kPa, x1 = 0.1302 | 904.75
398.15 K, 15070 kPa, x1 = 0.0433 | 791.97
398.15 K, 15210 kPa, x1 = 0.4988 | 1081.15
398.15 K, 15360 kPa, x1 = 0.9102 | 1142.35
398.15 K, 15450 kPa, x1 = 0.2626 | 999.14
398.15 K, 15960 kPa, x1 = 0.7501 | 1125.17
398.15 K, 20030 kPa, x1 = 0.4988 | 1085
398.15 K, 20060 kPa, x1 = 0.0087 | 732.52
398.15 K, 20060 kPa, x1 = 0.2626 | 1003.34
398.15 K, 20100 kPa, x1 = 0.1302 | 909.67
398.15 K, 20310 kPa, x1 = 0.0433 | 798.45
398.15 K, 20340 kPa, x1 = 0.7501 | 1128.18
398.15 K, 20470 kPa, x1 = 0.9102 | 1145.63
398.15 K, 24980 kPa, x1 = 0.0087 | 738.99
398.15 K, 25010 kPa, x1 = 0.9102 | 1148.46
398.15 K, 25060 kPa, x1 = 0.1302 | 914.25
398.15 K, 25080 kPa, x1 = 0.0433 | 803.88
398.15 K, 25320 kPa, x1 = 0.4988 | 1089.05
398.15 K, 25620 kPa, x1 = 0.2626 | 1008.18
398.15 K, 25720 kPa, x1 = 0.7501 | 1131.78
398.15 K, 29970 kPa, x1 = 0.1302 | 918.57
398.15 K, 30080 kPa, x1 = 0.7501 | 1134.62
398.15 K, 30090 kPa, x1 = 0.4988 | 1092.57
398.15 K, 30120 kPa, x1 = 0.0087 | 745.21
398.15 K, 30200 kPa, x1 = 0.0433 | 809.19
398.15 K, 30740 kPa, x1 = 0.2626 | 1012.44
398.15 K, 30890 kPa, x1 = 0.9102 | 1152.03
398.15 K, 34960 kPa, x1 = 0.0433 | 813.67
398.15 K, 35040 kPa, x1 = 0.4988 | 1096.06
398.15 K, 35060 kPa, x1 = 0.1302 | 922.81
398.15 K, 35210 kPa, x1 = 0.7501 | 1137.87
398.15 K, 35280 kPa, x1 = 0.9102 | 1154.61
398.15 K, 35310 kPa, x1 = 0.0087 | 750.93
398.15 K, 35620 kPa, x1 = 0.2626 | 1016.31
398.15 K, 39740 kPa, x1 = 0.1302 | 926.51
398.15 K, 39920 kPa, x1 = 0.9102 | 1157.27
398.15 K, 39940 kPa, x1 = 0.0433 | 817.88
398.15 K, 39940 kPa, x1 = 0.7501 | 1140.77
398.15 K, 39960 kPa, x1 = 0.4988 | 1099.38
398.15 K, 39970 kPa, x1 = 0.0087 | 755.59
398.15 K, 39980 kPa, x1 = 0.2626 | 1019.62
